Data taken from patent US3933794A, “2-(2-Alkynylamino)-3H-1,4-benzodiazepines” (priority 1973, dated 1976).

What was measured:
Assay type in all cases: in vivo
mice [1] = test: Pedestal test; settings: Mus musculus, ip, 1 min, intraperitoneal injection, mice stay on pedestal for more than 1 minute, read-out: ED50 P (pedestal test)
Protocol: (§1) Sedative effects of the compounds of this invention are shown by the following tests in mice:
Pedestal test: The untreated mouse leaves a standard pedestal in less than a minute to climb back to the floor of the standard mouse box. Tranquilized mice will stay on the pedestal for more than 1 minutes.

mice [2] = test: Dish test; settings: Mus musculus, ip, 0.05 h, intraperitoneal injection, 50% of mice remain in dish for more than 3 minutes, read-out: ED50 D (dish test)
Protocol: as §1
Dish test: Mice in Petri dishes (10 cm. diameter, 5 cm. high, partially embedded in wood shavings), climb out in a very short time, when not treated. Mice remaining in the dish for more than 3 minutes indicates tranquilization. ED50 equals the dose of test compound at which 50% of the mice remain in the dish.

mice [3] = test: Nicotine antagonism test; settings: Mus musculus, ip, 0.5 h, intraperitoneal injection, nicotine salicylate 2 mg./kg. 30 minutes later, (3) = death, read-out: ED50 Ni (nicotine antagonism (3) test)
Protocol: as §1
Nicotine antagonism test: Mice in a group of 6 are injected with the text compound. Thirty minutes later the mice including control (untreated) mice are injected with nicotine salicylate (2 mg./kg.). The control mice show over-stimulation, i.e., (1) running convulsions followed by (2) tonic extensor filts; followed by (3) death.

mice [4] = test: Antagonism to strychnine (as sulfate); settings: Mus musculus, ip, 4 h, read-out: ED50 Str (strychnine antagonism)
Protocol: as §1
Antagonism to strychnine (as sulfate): The test consists in orally administering into groups of 6 mice the test compound, and 30 minutes later 3 mg./kg. strychnine sulfate intraperitoneally. The survivors after 4 hours reflect the activity of the compound as a muscle relaxant and antispasmodic. A dosage of 3 mg./kg. of strychnine sulfate is routinely fatal to all the control mice.

mice [5] = test: Chimney test; settings: Mus musculus, ip, intraperitoneal injection, 50% of mice fail to back out of glass cylinder within 30 seconds, read-out: ED50 Ch (chimney test)
Text: as §1
Chimney test: [Med. Exp. 4, 145 (1961)]: The test determines the ability of mice to back up and out of a vertical glass cylinder within 30 seconds. At the effective dosage, 50% of the mice failed doing it.

Row | SMILES | ED50 (mice [1]) | ED50 (mice [2]) | ED50 (mice [3]) | ED50 (mice [4]) | ED50 (mice [5])
1 | Cc1cnc2n1-c1ccc(Cl)cc1C(c1ccccc1)=NC2 [8-chloro-1-methyl-6-phenyl-4H-imidazo[1,2-a]-[1,4]benzodiazepine] | 28 mg/kg | 5 mg/kg | 1.8 mg/kg | 79 mg/kg | 25 mg/kg
2 | Cc1cnc2n1-c1ccc(Cl)cc1C(c1ccccc1Cl)=NC2 [8-chloro-6-(2-chlorophenyl)-1-methyl-4H-imidazo[1,2-a][1,4]benzodiazepine] | 0.4 mg/kg | 0.23 mg/kg | 0.13 mg/kg | 1.8 mg/kg | 0.5 mg/kg
3 | O=Cc1cnc2n1-c1ccc(Cl)cc1C(c1ccccc1)=NC2 [8-chloro-6-phenyl-4H-imidazo[1,2-a][1,4]benzodiazepine-1-carboxaldehyde] | 2.8 mg/kg | 0.8 mg/kg | 0.36 mg/kg | 11 mg/kg | 4 mg/kg
